According to article PMC7477889 (SLAS discovery : advancing life sciences R & D, 2020):
“Also recorded” adds a separate entry of the source. Where two headings read alike, the source gives them in different places.

How the values were obtained:
[1] = target: T1, GFP-ARER (chimeric androgen receptor with ERα DBD) (Homo sapiens, UniProt P10275, A574V/A587S/A588I/A597P/A623V/C570Y/D601Q/DEL544-554/E566Y/E589Q/F607N/G564N/G578E/I562V/K558R/K591H/K593D/L561A/L575W/L595M/L627K/N611S/P555K/P556E/P613Q/Q557T/Q592N/R599T/S579G/S598A/S614A/T542S/T559Y/T576S/T626M/V582A); test: GFP-ARER:PRL-HeLa high content analysis assay; type: cell-based
T1 sequence (P10275 with tags, fused parts or gaps T542S/DEL544-554/P555K/P556E/Q557T/K558R/T559Y/L561A/I562V/G564N/E566Y/C570Y/A574V/L575W/T576S/G578E/S579G/V582A/A587S/A588I/E589Q/K591H/Q592N/K593D/L595M/A597P/S598A/R599T/D601Q/F607N/N611S/P613Q/S614A/A623V/T626M/L627K): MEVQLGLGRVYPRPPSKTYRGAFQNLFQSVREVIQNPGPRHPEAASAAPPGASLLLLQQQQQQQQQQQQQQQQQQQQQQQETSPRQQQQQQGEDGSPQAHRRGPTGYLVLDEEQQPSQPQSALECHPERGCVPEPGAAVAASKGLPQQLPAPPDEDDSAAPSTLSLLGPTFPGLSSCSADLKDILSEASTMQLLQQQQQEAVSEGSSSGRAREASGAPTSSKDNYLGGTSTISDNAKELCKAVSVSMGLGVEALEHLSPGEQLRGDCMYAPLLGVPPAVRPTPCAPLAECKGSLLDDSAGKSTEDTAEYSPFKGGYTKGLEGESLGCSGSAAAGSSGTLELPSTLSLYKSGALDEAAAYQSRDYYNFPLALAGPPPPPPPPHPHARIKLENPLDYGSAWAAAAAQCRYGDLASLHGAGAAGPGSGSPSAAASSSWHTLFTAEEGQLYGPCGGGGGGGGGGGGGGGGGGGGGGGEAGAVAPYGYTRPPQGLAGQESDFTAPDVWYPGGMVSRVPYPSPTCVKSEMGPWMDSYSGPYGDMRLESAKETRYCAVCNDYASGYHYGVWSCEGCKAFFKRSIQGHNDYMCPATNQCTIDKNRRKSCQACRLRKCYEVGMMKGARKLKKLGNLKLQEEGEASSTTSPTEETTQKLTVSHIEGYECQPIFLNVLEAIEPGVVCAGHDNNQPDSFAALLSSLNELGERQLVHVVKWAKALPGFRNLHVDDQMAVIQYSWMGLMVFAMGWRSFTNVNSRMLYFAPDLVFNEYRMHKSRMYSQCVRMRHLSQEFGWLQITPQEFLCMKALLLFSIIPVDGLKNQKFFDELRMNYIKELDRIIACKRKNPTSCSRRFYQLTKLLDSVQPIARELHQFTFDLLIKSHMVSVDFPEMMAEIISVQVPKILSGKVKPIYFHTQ

GFP-AR = settings: read-out: Nuclear Translocation EC50, cited from earlier work
[2] = tested on: GFP-PRER (chimeric progesterone receptor with ERα DBD); settings: result in words; cited from earlier work
[3] = AUC normalized to vehicle and DHT controls, result in words
[4] = GFP-ARER:PRL-HeLa, 2 hours, result in words

Cc1cc(C(C)(C)c2cc(C)c(O)c(C)c2)cc(C)c1O [tetramethyl-bisphenol A]
nuclear translocation response ([1]; supplemented ATSDR chemicals and mixtures, 0.1 nM to 10 μM (chemicals), 200-fold to 200,000-fold dilution (mixtures), 2 hours): 10-12 % of DHT response

CC(C)(O)C(=O)Nc1ccc([N+](=O)[O-])c(C(F)(F)F)c1 [hydroxyflutamide]
GFP-ARER nuclear translocation [1]: strongest responders; also recorded: induced GFP-ARER nuclear translocation
nuclear translocation AUC score (k-means Cluster 3) [1]: stronger AUC scores
visible chromatin binding (PRL array spot) by GFP-ARER [1]: undetectable evidence of chromatin binding

C[C@]12CC[C@@H]3c4ccc(O)cc4CC[C@H]3[C@@H]1CCC2=O [estrone]
AUC score for nuclear translocation, chromatin binding, and receptor stabilization (k-means cluster) [1, 3]: low/moderate AUC score
GFP-ARER nuclear translocation [1, 4]: strongest responders
visible chromatin binding (PRL array spot) by GFP-ARER [1, 4]: induce a visible spot indicating chromatin binding

CC12CC1(C)C(=O)N(c1cc(Cl)cc(Cl)c1)C2=O (stereo not shown) [promycidone, procymidone]
nuclear translocation AUC score (k-means Cluster 3) [1, 3]: stronger AUC scores
GFP-ARER nuclear translocation [1, 4]: strongest responders

C[C@]12CCC(=O)C[C@@H]1CC[C@@H]1[C@@H]2CC[C@]2(C)[C@@H](O)CC[C@@H]12 [DHT, 5α-dihydrotestosterone]
EC50 (GFP-AR; GFP-AR:HeLa): 11 ± 2 nM

CN(C)c1ccc([C@H]2C[C@]3(C)[C@@H](CC[C@]3(O)CCCO)[C@@H]3CCC4=CC(=O)CCC4=C32)cc1 [ZK98299]
visible chromatin binding in the GFP-PRER:PRL-HeLa cell model [2]: does not

CC#C[C@]1(O)CC[C@H]2[C@@H]3CCC4=CC(=O)CCC4=C3[C@@H](c3ccc(N(C)C)cc3)C[C@@]21C [RU486]
visible chromatin binding in the GFP-PRER:PRL-HeLa cell model [2]: induces visible chromatin binding
